ChEMBL document CHEMBL1121547 (J Med Chem, 1980)

How the values were obtained:
[1] = biological target: GABA-A receptor; anion channel (Rattus norvegicus) (UniProt O09028+P15431+P18506+P18508+P19969+P20236+P23574+P23576+P28471+P28473+P30191+P62813+P63079+P63138+Q91ZM7+Q9ES14); assay: Relative binding affinity for sodium-independent Gamma-aminobutyric acid receptor synaptic membrane binding site in rat brain tissue; format: tissue-based
[2] = biological target: GABA-A receptor; anion channel; assay: Displacement of [3H]gamma-aminobutyric acid from sodium-independent Gamma-aminobutyric acid (GABA-A) receptor synaptic membrane binding sites from rat brain tissue
[3] = biological target: Gamma-aminobutyric acid receptor subunit gamma-1 (Rattus norvegicus, UniProt P23574); assay: […] of [3H]GABA at Gamma-aminobutyric acid receptor in rat brain membranes at 0.01 uM; format: cell membranes
Gamma-aminobutyric acid receptor subunit gamma-1, sequence (P23574 whole entry): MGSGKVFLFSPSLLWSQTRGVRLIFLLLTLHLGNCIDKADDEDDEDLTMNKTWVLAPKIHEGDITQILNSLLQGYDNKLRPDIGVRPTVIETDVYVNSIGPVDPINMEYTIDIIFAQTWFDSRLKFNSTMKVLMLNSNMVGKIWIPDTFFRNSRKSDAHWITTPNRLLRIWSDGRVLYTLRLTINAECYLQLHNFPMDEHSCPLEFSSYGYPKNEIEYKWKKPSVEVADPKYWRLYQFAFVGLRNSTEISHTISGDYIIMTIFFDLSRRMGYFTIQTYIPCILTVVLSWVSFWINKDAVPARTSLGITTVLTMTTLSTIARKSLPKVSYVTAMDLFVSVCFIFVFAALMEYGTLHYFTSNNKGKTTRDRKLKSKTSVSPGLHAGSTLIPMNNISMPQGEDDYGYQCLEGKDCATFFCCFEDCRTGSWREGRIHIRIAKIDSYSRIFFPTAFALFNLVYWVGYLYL

Row | Compound | Relative affinity [1] | IC50 [2] | IC50 [3] | IC50 ([2]; read-out: IC50)
1 | NCc1cc(O)no1 | 6.3 | – | – | –
2 | NCC1CCC1C(=O)O (racemic) | 6.9 | 0.00029 M l-1 | – | –
3 | CN1CCc2cc3c(cc2[C@H]1[C@@H]1OC(=O)c2c1ccc1c2OCO1)OCO3 [BICUCULLINE] | 0.0056 | – | 3.8 µM | –
4 | NCc1cc(=O)[nH]o1 [MUSCIMOL] | – | – | – | 3.2 nM
